In ChEMBL document CHEMBL2010722, “Structure-activity relationship study of beta-carboline derivatives as haspin kinase inhibitors” (Bioorg Med Chem Lett, 2012):

What was measured:
[1] = target: RAC-gamma serine/threonine-protein kinase (Homo sapiens) (UniProt Q9Y243); test: Inhibition of AKT3 at 10 uM
[2] = target: Insulin receptor (Homo sapiens) (UniProt P06213); test: Inhibition of INSR at 10 uM
[3] = target: Epidermal growth factor receptor (Homo sapiens) (UniProt P00533); test: Inhibition of EGFR at 10 uM
[4] = target: Rho-associated protein kinase 1 (Homo sapiens) (UniProt Q13464); test: Inhibition of ROCK1 at 10 uM
[5] = system: Mast/stem cell growth factor receptor Kit (Homo sapiens), P10721 [D816V]; test: Inhibition of KIT D816V mutant at 10 uM
[6] = target: Ephrin type-A receptor 2 (Homo sapiens) (UniProt P29317); test: Inhibition of EPHA2 at 10 uM
[7] = target: cGMP-dependent protein kinase 1 (Homo sapiens) (UniProt Q13976); test: Inhibition of PRKG1 at 10 uM
[8] = target: Cyclin-dependent kinase 2/cyclin E1 (Homo sapiens) (UniProt P24864+P24941); test: Inhibition of CDK2-Cyclin E1 at 10 uM; type: protein-complex assay
[9] = target: Serine/threonine-protein kinase Nek7 (Homo sapiens) (UniProt Q8TDX7); test: Inhibition of NEK7 at 10 uM
[10] = target: Sphingosine kinase 2 (Homo sapiens) (UniProt Q9NRA0); test: Inhibition of SPHK2 at 10 uM
[11] = target: Leukocyte tyrosine kinase receptor (Homo sapiens) (UniProt P29376); test: Inhibition of LTK at 10 uM
[12] = target: Protein kinase C beta type (Homo sapiens) (UniProt P05771); test: Inhibition of PKCbeta2 at 10 uM
[13] = target: cAMP-dependent protein kinase catalytic subunit PRKX (Homo sapiens) (UniProt P51817); test: Inhibition of PRKX at 10 uM
[14] = target: Tyrosine-protein kinase Lck (Homo sapiens) (UniProt P06239); test: Inhibition of LCK at 10 uM
[15] = target: Macrophage-stimulating protein receptor (Homo sapiens) (UniProt Q04912); test: Inhibition of RON at 10 uM
[16] = target: Tyrosine-protein kinase Lyn (Homo sapiens) (UniProt P07948); test: Inhibition of LYNb at 10 uM
[17] = target: Serine/threonine-protein kinase Sgk2 (Homo sapiens) (UniProt Q9HBY8); test: Inhibition of SGK2 at 10 uM
[18] = target: cAMP-dependent protein kinase catalytic subunit beta (Homo sapiens) (UniProt P22694); test: Inhibition of PKACb (PRKACB) at 10 uM
[19] = target: Lymphokine-activated killer T-cell-originated protein kinase (Homo sapiens) (UniProt Q96KB5); test: Inhibition of PBK at 10 uM
[20] = target: BDNF/NT-3 growth factors receptor (Homo sapiens) (UniProt Q16620); test: Inhibition of TRKB at 10 uM
[21] = target: Tyrosine-protein kinase FRK (Homo sapiens) (UniProt P42685); test: Inhibition of FRK at 10 uM
[22] = target: Serine/threonine-protein kinase Nek4 (Homo sapiens) (UniProt P51957); test: Inhibition of NEK4 at 10 uM
[23] = target: Ribosomal protein S6 kinase alpha-3 (Homo sapiens) (UniProt P51812); test: Inhibition of RSK2 N-terminal at 10 uM
[24] = system: Epidermal growth factor receptor (Homo sapiens), P00533 [L858R]; test: Inhibition of EGFR L858R mutant at 10 uM; type: protein assay
[25] = target: Mitogen-activated protein kinase kinase kinase 12 (Homo sapiens) (UniProt Q12852); test: Inhibition of DLK at 10 uM
Mitogen-activated protein kinase kinase kinase 12 (Homo sapiens), sequence (Q12852 whole entry): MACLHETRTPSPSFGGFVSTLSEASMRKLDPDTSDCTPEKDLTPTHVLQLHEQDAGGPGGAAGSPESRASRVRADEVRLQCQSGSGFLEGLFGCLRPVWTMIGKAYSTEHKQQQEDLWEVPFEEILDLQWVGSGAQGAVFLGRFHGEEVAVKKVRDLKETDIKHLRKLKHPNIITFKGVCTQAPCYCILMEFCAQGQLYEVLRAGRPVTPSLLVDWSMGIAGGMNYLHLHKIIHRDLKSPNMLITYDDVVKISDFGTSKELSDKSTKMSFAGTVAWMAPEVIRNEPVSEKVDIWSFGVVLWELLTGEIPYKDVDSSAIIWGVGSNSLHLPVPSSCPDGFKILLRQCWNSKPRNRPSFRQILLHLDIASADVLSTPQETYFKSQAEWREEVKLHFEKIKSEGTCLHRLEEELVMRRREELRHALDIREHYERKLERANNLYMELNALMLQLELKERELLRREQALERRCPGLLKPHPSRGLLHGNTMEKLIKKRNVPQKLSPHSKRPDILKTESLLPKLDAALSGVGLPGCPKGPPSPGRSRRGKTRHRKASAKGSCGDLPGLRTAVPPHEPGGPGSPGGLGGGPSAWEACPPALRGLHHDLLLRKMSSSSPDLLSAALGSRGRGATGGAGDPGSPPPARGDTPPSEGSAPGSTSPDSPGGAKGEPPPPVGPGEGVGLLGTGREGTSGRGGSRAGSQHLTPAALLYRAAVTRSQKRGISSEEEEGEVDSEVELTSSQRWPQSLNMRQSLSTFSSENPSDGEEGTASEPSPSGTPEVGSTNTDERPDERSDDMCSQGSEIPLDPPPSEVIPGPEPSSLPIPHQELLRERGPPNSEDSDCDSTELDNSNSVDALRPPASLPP

[26] = target: Protein kinase C iota type (Homo sapiens) (UniProt P41743); test: Inhibition of PKCi at 10 uM
Protein kinase C iota type (Homo sapiens), sequence (P41743 whole entry): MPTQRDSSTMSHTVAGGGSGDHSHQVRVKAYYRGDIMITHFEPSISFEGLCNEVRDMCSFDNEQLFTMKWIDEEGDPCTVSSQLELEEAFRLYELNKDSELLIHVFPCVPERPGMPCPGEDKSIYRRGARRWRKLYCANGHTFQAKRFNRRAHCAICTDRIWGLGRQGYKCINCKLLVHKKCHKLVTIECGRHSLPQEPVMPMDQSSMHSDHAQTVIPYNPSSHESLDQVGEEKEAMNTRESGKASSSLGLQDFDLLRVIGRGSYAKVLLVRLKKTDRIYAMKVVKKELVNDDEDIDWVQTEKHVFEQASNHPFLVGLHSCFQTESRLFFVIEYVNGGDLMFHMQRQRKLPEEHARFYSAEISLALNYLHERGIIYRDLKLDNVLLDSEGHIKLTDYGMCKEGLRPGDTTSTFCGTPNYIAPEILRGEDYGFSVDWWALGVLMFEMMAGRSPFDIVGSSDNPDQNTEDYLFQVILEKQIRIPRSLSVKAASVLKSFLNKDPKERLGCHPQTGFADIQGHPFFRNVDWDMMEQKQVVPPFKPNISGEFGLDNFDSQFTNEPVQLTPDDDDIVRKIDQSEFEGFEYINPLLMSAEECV

[27] = target: Inhibitor of nuclear factor kappa-B kinase subunit epsilon (Homo sapiens) (UniProt Q14164); test: Inhibition of IKKe at 10 uM
[28] = target: Hepatocyte growth factor receptor (Homo sapiens) (UniProt P08581); test: Inhibition of MET at 10 uM
[29] = target: Serine/threonine-protein kinase pim-1 (Homo sapiens) (UniProt P11309); test: Inhibition of PIM1 at 10 uM
Serine/threonine-protein kinase pim-1 (Homo sapiens), sequence (P11309 whole entry, looked up): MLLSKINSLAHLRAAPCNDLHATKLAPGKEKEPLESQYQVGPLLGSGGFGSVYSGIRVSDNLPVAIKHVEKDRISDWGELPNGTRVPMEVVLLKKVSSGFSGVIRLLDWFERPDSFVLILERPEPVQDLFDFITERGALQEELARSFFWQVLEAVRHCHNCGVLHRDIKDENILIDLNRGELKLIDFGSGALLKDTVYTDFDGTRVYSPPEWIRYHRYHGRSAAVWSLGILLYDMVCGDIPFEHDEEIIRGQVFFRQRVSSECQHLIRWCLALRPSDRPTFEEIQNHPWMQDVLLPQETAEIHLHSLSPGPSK

[30] = target: Protein kinase C gamma type (Homo sapiens) (UniProt P05129); test: Inhibition of PKCgamma at 10 uM
[31] = target: Serine/threonine-protein kinase MARK1 (Homo sapiens) (UniProt Q9P0L2); test: Inhibition of MARK1 at 10 uM
[32] = target: Maternal embryonic leucine zipper kinase (Homo sapiens) (UniProt Q14680); test: Inhibition of MELK at 10 uM
[33] = target: Serine/threonine-protein kinase 38 (Homo sapiens) (UniProt Q15208); test: Inhibition of NDR1 at 10 uM
[34] = target: Tyrosine-protein kinase JAK3 (Homo sapiens) (UniProt P52333); test: Inhibition of JAK3 at 10 uM
[35] = target: Dual specificity mitogen-activated protein kinase kinase 3 (Homo sapiens) (UniProt P46734); test: Inhibition of MAP2K3 at 10 uM
[36] = target: Serine/threonine-protein kinase pim-2 (Homo sapiens) (UniProt Q9P1W9); test: Inhibition of PIM2 at 10 uM
[37] = target: Platelet-derived growth factor receptor alpha (Homo sapiens) (UniProt P16234); test: Inhibition of PDGFRa at 10 uM
[38] = target: Serine/threonine-protein kinase D2 (Homo sapiens) (UniProt Q9BZL6); test: Inhibition of PKD2 at 10 uM
[39] = target: Serine/threonine-protein kinase PAK 4 (Homo sapiens) (UniProt O96013); test: Inhibition of PAK4 at 10 uM
Serine/threonine-protein kinase PAK 4 (Homo sapiens), sequence (O96013 whole entry, looked up): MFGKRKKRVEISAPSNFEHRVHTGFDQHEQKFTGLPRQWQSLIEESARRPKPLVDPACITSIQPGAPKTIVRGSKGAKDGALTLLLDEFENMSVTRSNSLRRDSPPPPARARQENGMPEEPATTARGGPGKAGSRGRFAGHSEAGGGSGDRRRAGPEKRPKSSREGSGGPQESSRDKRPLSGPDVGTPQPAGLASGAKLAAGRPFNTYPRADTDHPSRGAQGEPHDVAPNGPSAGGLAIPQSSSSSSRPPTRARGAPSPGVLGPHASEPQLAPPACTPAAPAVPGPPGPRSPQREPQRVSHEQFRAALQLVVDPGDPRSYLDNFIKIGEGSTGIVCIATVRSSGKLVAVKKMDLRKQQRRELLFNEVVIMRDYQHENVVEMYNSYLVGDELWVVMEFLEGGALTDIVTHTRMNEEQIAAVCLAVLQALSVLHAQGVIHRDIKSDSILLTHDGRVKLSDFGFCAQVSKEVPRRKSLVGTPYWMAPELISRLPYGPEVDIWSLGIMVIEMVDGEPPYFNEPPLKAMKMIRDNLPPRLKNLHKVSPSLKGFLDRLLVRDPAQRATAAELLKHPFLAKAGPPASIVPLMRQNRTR

[40] = target: Serine/threonine-protein kinase BRSK1 (Homo sapiens) (UniProt Q8TDC3); test: Inhibition of BRSK1 at 10 uM
Serine/threonine-protein kinase BRSK1 (Homo sapiens), sequence (Q8TDC3 whole entry): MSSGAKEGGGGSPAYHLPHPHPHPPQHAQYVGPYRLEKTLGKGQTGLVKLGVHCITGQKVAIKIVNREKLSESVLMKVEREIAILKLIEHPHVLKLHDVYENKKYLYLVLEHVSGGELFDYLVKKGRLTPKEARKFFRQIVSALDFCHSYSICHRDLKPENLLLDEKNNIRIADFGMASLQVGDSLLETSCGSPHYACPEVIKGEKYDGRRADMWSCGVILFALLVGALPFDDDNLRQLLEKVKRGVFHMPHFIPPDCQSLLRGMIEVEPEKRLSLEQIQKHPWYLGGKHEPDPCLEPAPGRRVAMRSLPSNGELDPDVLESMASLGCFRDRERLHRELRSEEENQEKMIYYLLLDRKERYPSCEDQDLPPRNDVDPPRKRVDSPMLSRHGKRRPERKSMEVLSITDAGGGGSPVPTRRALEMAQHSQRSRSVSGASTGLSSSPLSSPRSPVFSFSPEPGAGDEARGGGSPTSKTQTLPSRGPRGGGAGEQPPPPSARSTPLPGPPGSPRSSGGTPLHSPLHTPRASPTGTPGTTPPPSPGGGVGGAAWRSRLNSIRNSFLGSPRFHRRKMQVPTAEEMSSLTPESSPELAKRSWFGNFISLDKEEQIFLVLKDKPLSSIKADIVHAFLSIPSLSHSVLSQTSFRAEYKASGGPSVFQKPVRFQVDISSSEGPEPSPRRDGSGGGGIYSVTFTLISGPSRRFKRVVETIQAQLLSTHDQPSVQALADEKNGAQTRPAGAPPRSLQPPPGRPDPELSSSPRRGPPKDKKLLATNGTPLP

[41] = target: Fibroblast growth factor receptor 1 (Homo sapiens) (UniProt P11362); test: Inhibition of FGFR1 at 10 uM
[42] = target: Dual specificity mitogen-activated protein kinase kinase 4 (Homo sapiens) (UniProt P45985); test: Inhibition of MAP2K4 at 10 uM

Insulin receptor (Homo sapiens), sequence (P06213 28-758 limits assumed): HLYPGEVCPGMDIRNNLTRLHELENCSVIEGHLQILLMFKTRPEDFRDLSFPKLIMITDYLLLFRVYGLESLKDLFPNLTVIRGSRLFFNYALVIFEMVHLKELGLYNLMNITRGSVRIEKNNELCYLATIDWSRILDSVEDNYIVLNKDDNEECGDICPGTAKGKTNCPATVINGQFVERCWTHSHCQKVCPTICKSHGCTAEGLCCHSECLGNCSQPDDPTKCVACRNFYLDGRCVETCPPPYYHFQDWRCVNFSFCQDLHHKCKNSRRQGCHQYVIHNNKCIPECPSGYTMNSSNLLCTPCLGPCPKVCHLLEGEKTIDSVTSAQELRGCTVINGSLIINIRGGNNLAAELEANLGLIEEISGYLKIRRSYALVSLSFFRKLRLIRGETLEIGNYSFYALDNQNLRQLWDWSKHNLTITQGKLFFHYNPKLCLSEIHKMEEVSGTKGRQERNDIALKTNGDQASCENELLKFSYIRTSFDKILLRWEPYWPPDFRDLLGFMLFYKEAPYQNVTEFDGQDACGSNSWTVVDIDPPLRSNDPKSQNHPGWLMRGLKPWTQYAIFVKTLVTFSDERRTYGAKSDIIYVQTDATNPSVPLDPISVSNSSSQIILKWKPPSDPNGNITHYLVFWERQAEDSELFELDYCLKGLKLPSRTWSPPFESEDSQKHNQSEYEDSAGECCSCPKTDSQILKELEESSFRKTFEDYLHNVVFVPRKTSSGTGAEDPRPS
Insulin receptor (Homo sapiens), sequence (P06213 763-1382 limits assumed): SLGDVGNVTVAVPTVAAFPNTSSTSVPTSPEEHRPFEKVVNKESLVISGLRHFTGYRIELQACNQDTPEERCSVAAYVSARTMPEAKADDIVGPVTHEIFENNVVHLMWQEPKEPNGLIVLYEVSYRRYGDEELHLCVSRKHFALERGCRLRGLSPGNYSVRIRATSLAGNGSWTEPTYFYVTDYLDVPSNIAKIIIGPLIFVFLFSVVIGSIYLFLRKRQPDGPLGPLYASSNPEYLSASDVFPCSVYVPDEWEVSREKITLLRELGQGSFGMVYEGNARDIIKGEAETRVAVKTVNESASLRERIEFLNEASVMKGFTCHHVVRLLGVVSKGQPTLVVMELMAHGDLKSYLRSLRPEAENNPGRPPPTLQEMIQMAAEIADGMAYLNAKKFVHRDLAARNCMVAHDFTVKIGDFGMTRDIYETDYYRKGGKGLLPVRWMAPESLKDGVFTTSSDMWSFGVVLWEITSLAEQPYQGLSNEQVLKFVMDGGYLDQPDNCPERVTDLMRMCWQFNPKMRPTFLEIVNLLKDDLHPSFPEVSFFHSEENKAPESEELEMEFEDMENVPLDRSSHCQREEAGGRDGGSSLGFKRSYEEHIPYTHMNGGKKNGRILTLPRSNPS
RAC-gamma serine/threonine-protein kinase (Homo sapiens), sequence (Q9Y243 whole entry): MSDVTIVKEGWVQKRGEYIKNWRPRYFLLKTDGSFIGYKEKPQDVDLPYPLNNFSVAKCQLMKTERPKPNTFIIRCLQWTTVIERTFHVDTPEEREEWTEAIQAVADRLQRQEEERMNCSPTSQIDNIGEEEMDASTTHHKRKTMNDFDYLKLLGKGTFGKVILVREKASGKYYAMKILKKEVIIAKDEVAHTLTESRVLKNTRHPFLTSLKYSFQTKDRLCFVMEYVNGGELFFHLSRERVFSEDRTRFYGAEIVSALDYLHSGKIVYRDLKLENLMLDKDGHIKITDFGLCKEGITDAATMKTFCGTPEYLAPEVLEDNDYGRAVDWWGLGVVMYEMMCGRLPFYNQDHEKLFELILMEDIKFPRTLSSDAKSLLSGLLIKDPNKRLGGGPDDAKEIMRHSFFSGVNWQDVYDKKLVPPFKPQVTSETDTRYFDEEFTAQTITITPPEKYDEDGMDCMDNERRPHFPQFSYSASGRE

SMILES: COc1ccc2c3ccnc(C(F)(F)F)c3n(CCCCN)c2c1
- inhibition [1]: 12%
- inhibition [2]: 0%
- inhibition [3]: 13%
- inhibition [4]: 84%
- inhibition [5]: 32%
- inhibition [6]: 0%
- inhibition [7]: 80%
- inhibition [8]: 31%
- inhibition [9]: 0%
- inhibition [10]: 6%
- inhibition [11]: 5%
- inhibition [12]: 28%
- inhibition [13]: 14%
- inhibition [14]: 11%
- inhibition [15]: 0%
- inhibition [16]: 0%
- inhibition [17]: 20%
- inhibition [18]: 41%
- inhibition [19]: 12%
- inhibition [20]: 7%
- inhibition [21]: 10%
- inhibition [22]: 4%
- inhibition [23]: 28%
- inhibition [24]: 10%
- inhibition [25]: 3%
- inhibition [26]: 9%
- inhibition [27]: 0%
- inhibition [28]: 4%
- inhibition [29]: 91%
- inhibition [30]: 22%
- inhibition [31]: 48%
- inhibition [32]: 78%
- inhibition [33]: 4%
- inhibition [34]: 4%
- inhibition [35]: 38%
- inhibition [36]: 64%
- inhibition [37]: 27%
- inhibition [38]: 84%
- inhibition [39]: 13%
- inhibition [40]: 34%
- inhibition [41]: 5%
- inhibition [42]: 10%
